Results from patent US8349883B2, “Hydroxamate-based inhibitors of deacetylases B” (Novartis AG, priority 2008, dated 2013).

Key:
HDAC-1 = target: T1, HDAC-1 (Homo sapiens, UniProt Q13547); assay: HDAC inhibition assay (purified GST-HDAC protein); assay type: biochemical
T1 construct: made in house; host or cells: Sf9 or Sf21 insect cells (baculovirus, donor vector pFB-GSTX3)
Description: The baculovirus donor vector pFB-GSTX3 was used to generate a recombinant baculovirus that can express the HDAC polypeptide. Transfer vectors containing the HDAC coding region were transfected into the DH10Bac cell line (GIBCO) and plated on selective agar plates. Colonies without insertion of the fusion sequence into the viral genome (carried by the bacteria) were blue. Single, white colonies were picked and viral DNAs (bacmid) were isolated from the bacteria by standard plasmid purification procedures. Sf9 cells or Sf21 (American Type Culture Collection) cells were then transfected in […] flasks with the viral DNA using Cellfectin reagent.
Virus-containing media was collected from the transfected cell culture and used for infection to increase its titer. Virus-containing media obtained after two rounds of infection was used for large-scale protein expression. For large-scale protein expression 100 cm^2 round tissue culture plates were seeded with 5×10^7 cells/plate and infected with 1 mL of virus-containing media (at an approximately MOI of 5). After 3 days, the cells were scraped off the plate and centrifuged at 500 rpm for 5 minutes. Cell pellets from 10-20, 100 cm^2 plates, were re-suspended in 50 mL of ice-cold lysis buffer (25 mM tris-HCl, pH 7.5, 2 mM EDTA, 1% NP-40, 1 mM DTT, 1 mM P MSF). The cells were stirred on ice for 15 minutes and then centrifuged at 5,000 rpms for 20 minutes.
The centrifuged cell lysate was loaded onto a 2 mL glutathione-sepharose column (Pharmacia) and was washed thrice with 10 mL of 25 mM tris-HCl, pH 7.5, 2 mM EDTA, 1 mM DTT, 200 mM NaCl. The GST-tagged proteins were then eluted by 10 applications (1 mL each) of 25 mM tris-HCl, pH 7.5, 10 mM reduced-glutathione, 100 mM NaCl, 1 mM DTT, 10% glycerol and stored at −70° C.
HDAC assays with purified GST-HDAC protein were carried out in a final volume of 30 μL containing 15 ng of GST-HDAC protein, 20 mM tris-HCl, pH 7.5, 1 mM MnCl2, 10 mM MgCl2, 1 mM DTT, 3 μg/mL poly(Glu,Tyr) 4:1, 1% DMSO, 2.0 μM ATP (γ-[^33P]-ATP 0.1 μCi). The activity was assayed in the presence or absence of inhibitors. The assay was carried out in 96-well plates at ambient temperature for 15 minutes under conditions described below and terminated by the addition of 20 μL of 125 mM EDTA. Subsequently, 40 μL of the reaction mixture were transferred onto EMMOBILON-PVDF membrane (Millipore) previously soaked for 5 minutes with methanol, rinsed with water, then soaked for 5 minutes with 0.5% H3PO4 and mounted on vacuum manifold with disconnected vacuum source. After spotting all samples, a vacuum was connected and each well rinsed with 200 μL 0.5% H3PO4. Membranes were removed and washed four times on a shaker with 1.0% H3PO4, once with ethanol. Membranes were counted after drying at ambient temperature, mounting in Packard TopCount 96-well frame, and addition of 10 μL/well of MICROSCINT™ (Packard). IC50 values were calculated by linear regression analysis of the percentage inhibition of each compound in duplicate, at 4 concentrations (usually 0.01, 0.1, 1 and 10 μM).
• Input: 3×4 μL stopped assay on IMMOBILON membrane, not washed • Background (3 wells): assay with H2O instead of enzyme • Positive control (4 wells): 3% DMSO instead of compound • Bath control (1 well): no reaction mix
IC50 values were calculated by logarithmic regression analysis of the percentage inhibition of each compound at 4 concentrations (usually 3- or 10-fold dilution series starting at 10 μM). In each experiment, the actual inhibition by reference compound was used for normalization of IC50 values to the basis of an average value of the reference inhibitor: Normalized IC50=measured IC50 average ref IC50/measured ref IC50
Example: Reference inhibitor in experiment 0.4 μM, average 0.3 μM, Test compound in experiment 1.0 μM, normalization: 0.3/0.4=0.75 μM
For example, known HDAC inhibitors or a synthetic derivative thereof may be used as reference compounds.

HCT116 = HCT116 IC50; assay type: cell-based; conditions: Homo sapiens, HCT-116

T1 sequence (Q13547 whole entry, species assumed): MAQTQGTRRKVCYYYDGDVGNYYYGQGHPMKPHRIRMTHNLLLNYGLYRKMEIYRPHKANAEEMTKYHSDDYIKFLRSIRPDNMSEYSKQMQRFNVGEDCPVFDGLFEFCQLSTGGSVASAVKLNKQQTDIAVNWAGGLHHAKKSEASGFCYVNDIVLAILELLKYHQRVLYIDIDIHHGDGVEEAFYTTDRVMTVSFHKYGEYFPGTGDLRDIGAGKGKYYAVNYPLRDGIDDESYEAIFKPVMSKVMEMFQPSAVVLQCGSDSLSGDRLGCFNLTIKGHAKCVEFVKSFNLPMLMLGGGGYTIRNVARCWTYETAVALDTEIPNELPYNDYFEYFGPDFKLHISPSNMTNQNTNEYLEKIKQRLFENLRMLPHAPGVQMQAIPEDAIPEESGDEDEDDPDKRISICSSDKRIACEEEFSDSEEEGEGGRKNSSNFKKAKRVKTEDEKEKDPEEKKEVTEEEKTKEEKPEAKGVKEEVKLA

IC50 (HDAC-1) | IC50 (HCT116) | Structure (SMILES)
35 nM | 58 nM | Cc1[nH]c2ccccc2c1CCN1CCN(C(=O)OC(C)(C)C)CC1c1ccc(/C=C/C(=O)NO)cc1 (stereo not shown) [Compound 87, 3-[4-((E)-2-Hydroxycarbamoyl-vinyl)-phenyl]-4-[2-(2-methyl-1H-indol-3-yl)-ethyl]-piperazine-1-carboxylic acid tert-butyl ester]
1.6 nM | 3 nM | Cc1n[nH]c(C)c1CCN1CCC[C@H]1c1ccc(/C=C/C(=O)NO)cc1 [Compound 95, (E)-3-(4-{(S)-1-[2-(3,5-Dimethyl-1H-pyrazol-4-yl)-ethyl]-pyrrolidin-2-yl}-phenyl)-N-hydroxy-acrylamide]
10 nM | 40 nM | CC(C)CCN1CCCC1c1ccc(/C=C/C(=O)NO)cc1 (stereo not shown) [Compound 36, (E)-N-Hydroxy-3-{4-[1-(3-methyl-butyl)-pyrrolidin-2-yl]-phenyl}-acrylamide]
10 nM | 30 nM | Cc1nn(C)c(C)c1CCN1CCC[C@H]1c1ccc(CCC(=O)NO)cc1 [Compound 112, N-Hydroxy-3-(4-{(S)-1-[2-(1,3,5-trimethyl-1H-pyrazol-4-yl)-ethyl]-pyrrolidin-2-yl}-phenyl)-propionamide]
1.4 nM | 1.1 nM | O=C(/C=C/c1ccc([C@@H]2CCCN2CCc2cnn3ccccc23)cc1F)NO [Compound 93, (E)-3-{2-Fluoro-4-[(S)-1-(2-pyrazolo[1,5-a]pyridin-3-yl-ethyl)-pyrrolidin-2-yl]-phenyl}-N-hydroxy-acrylamide]
2 nM | 3 nM | CC(C)(O)c1nn2ccccc2c1CCN1CCC[C@H]1c1ccc(/C=C/C(=O)NO)cc1 [Compound 48, (E)-N-Hydroxy-3-[4-((S)-1-{2-[2-(1-hydroxy-1-methyl-ethyl)-pyrazolo[1,5-a]pyridin-3-yl]-ethyl}-pyrrolidin-2-yl)-phenyl]-acrylamide]
3.2 nM | – | Cc1nn(CC2CCOCC2)c(C)c1CCN1CCC[C@H]1c1ccc(/C=C/C(=O)NO)cc1 [Compound 109, (E)-3-[4-((S)-1-{2-[3,5-Dimethyl-1-(tetrahydro-pyran-4-ylmethyl)-1H-pyrazol-4-yl]-ethyl}-pyrrolidin-2-yl)-phenyl]-N-hydroxy-acrylamide]
1.7 nM | 1.7 nM | CCCCn1nc(C)c(CCN2CCC[C@H]2c2ccc(/C=C/C(=O)NO)cc2)c1C [Compound 97, (E)-3-(4-{(S)-1-[2-(1-Butyl-3,5-dimethyl-1H-pyrazol-4-yl)-ethyl]-pyrrolidin-2-yl}-phenyl)-N-hydroxy-acrylamide]
8 nM | 40 nM | Cc1ccc(C(O)CN2CCCC2c2ccc(/C=C/C(=O)NO)cc2)cc1 (stereo not shown) [Compound 29, (E)-N-Hydroxy-3-{4-[1-(2-hydroxy-2-p-tolyl-ethyl)-pyrrolidin-2-yl]-phenyl}-acrylamide]
155 nM | – | Cc1n[nH]c(C)c1CCN1CCC[C@H]1c1ccc(CCC(=O)NO)cc1 [Compound 119, 3-(4-{(S)-1-[2-(3,5-Dimethyl-1H-pyrazol-4-yl)-ethyl]-pyrrolidin-2-yl}-phenyl)-N-hydroxy-propionamide]
12 nM | – | Cc1n[nH]c(C)c1CCN1CCC[C@@H]1c1ccc(/C=C/C(=O)NO)cc1 [Compound 117, (E)-3-(4-{(R)-1-[2-(3,5-Dimethyl-1H-pyrazol-4-yl)-ethyl]-pyrrolidin-2-yl}-phenyl)-N-hydroxy-acrylamide]
75 nM | – | CC(C)(O)c1nn2ccccc2c1CCN1CCC[C@H]1c1ccc(CCC(=O)NO)cc1 [Compound 113, N-Hydroxy-3-[4-((S)-1-{2-[2-(1-hydroxy-1-methyl-ethyl)-pyrazolo[1,5-a]pyridin-3-yl]-ethyl}-pyrrolidin-2-yl)-phenyl]-propionamide]

Structure (SMILES) | IC50 (HDAC-1) | IC50 (HCT116)
COc1ccc2[nH]c(C)c(CCN3CCCC3c3ccc(/C=C/C(=O)NO)cc3)c2c1 (stereo not shown) [Compound 6, (E)-N-Hydroxy-3-(4-{1-[2-(5-methoxy-2-methyl-1H-indol-3-yl)-ethyl]-pyrrolidin-2-yl}-phenyl)-acrylamide] | 2 nM | 1.2 nM
